According to ChEMBL document CHEMBL5214932, “A closer look at N2,6-substituted 1,3,5-triazine-2,4-diamines: Advances in synthesis and biological activities” (Eur J Med Chem, 2022):
Values belong to the compound of their own block, whether it stands above or below them.

Assays:
[1] = molecular target: T1, Free fatty acid receptor 1 (Homo sapiens, UniProt O14842); assay: Positive allosteric modulation of GPR40 (unknown origin) at 100 uM assessed as maximum efficacy relative to control; conditions: filed as positive allosteric modulator
[2] = molecular target: T1, Free fatty acid receptor 1; assay: Positive allosteric modulation of GPR40 (unknown origin)
[3] = Cytotoxicity against human Hepa 1-6/R cells assessed as cell growth inhibition measured after 72 hrs by CellTiter-Glo assay; type: functional, cell-based
[4] = Cytotoxicity against […] cells assessed as cell growth inhibition measured after 72 hrs by CellTiter-Glo assay; type: functional, cell-based; conditions: Hepa1-6, 72 h
NADPH oxidase 3 = NADPH oxidase 3 (Homo sapiens, UniProt Q9HBY0); assay: Inhibition of human NOX3
NADPH oxidase 1 = NADPH oxidase 1 (Homo sapiens, UniProt Q9Y5S8); assay: Inhibition of human NOX1
NADPH oxidase 2 = NADPH oxidase 2 (Homo sapiens, UniProt P04839); assay: Inhibition of human NOX2
Jurkat = assay: Cytotoxicity against human Jurkat cells assessed as cell growth inhibition; type: functional, cell-based
[5] = Cytotoxicity against human IM-9 cells assessed as cell growth inhibition; type: toxicity, cell-based
K562 = assay: cells; conditions: Homo sapiens
Description: Cytotoxicity against human K562 cells assessed as cell growth inhibition

DU-145 = assay: Cytotoxicity against human DU-145 cells assessed as cell growth inhibition; type: functional, cell-based
Daudi = assay: Cytotoxicity against human Daudi cells assessed as cell growth inhibition; type: functional, cell-based
[6] = Cytotoxicity against mouse LL2 cells assessed as cell growth inhibition; type: functional, cell-based; conditions: Lewis lung carcinoma
MCF7 [7] = assay: Cytotoxicity against human MCF7 cells assessed as cell growth inhibition; type: functional, cell-based
[8] = Cytotoxicity against human MHOC-59 cell assessed as cell growth inhibition; type: functional, cell-based
HEC-1-A = assay: Cytotoxicity against human HEC-1-A cells assessed as cell growth inhibition; type: functional, cell-based
AN3-CA = assay: Cytotoxicity against human AN3-CA cells assessed as cell growth inhibition; type: functional, cell-based
SISO = assay: Cytotoxicity against human SISO cells assessed as cell growth inhibition measured after 96 hrs by microplate reader analysis; type: functional, cell-based
DAN-G = assay: Cytotoxicity against human DAN-G cells assessed as cell growth inhibition measured after 96 hrs by microplate reader analysis; type: functional, cell-based
RT-4 = assay: Cytotoxicity against human RT-4 cells assessed as cell growth inhibition measured after 96 hrs by microplate reader analysis; type: functional, cell-based; conditions: RT-4, 96 h
LCLC = assay: Cytotoxicity against human LCLC cells assessed as cell growth inhibition measured after 96 hrs by microplate reader analysis; type: functional, cell-based
A-427 = assay: Cytotoxicity against human A-427 cells assessed as cell growth inhibition measured after 96 hrs by microplate reader analysis; type: functional, cell-based; conditions: A-427, 96 h
[9] = molecular target: 5-hydroxytryptamine receptor 1A (Homo sapiens, UniProt P08908); assay: Displacement of […] from human 5-HT1AR expressed in HEK293 cells by radioligand binding assay; type: cell-based
[10] = molecular target: T2, 5-hydroxytryptamine receptor 6 (Homo sapiens, UniProt P50406); assay: Displacement of [3H]-LSD from human 5-HT6R expressed in HEK293 cells assessed as binding constant by radioligand binding assay; type: cell-based
D(2) dopamine receptor = D(2) dopamine receptor (Homo sapiens, UniProt P14416); assay: Displacement of [3H]-Raclopride from human dopamine D2 receptor expressed in HEK293 cells by radioligand binding assay; type: cell-based
[11] = molecular target: 5-hydroxytryptamine receptor 7 (Homo sapiens, UniProt P34969); assay: Displacement of [3H]-5Carboxyamidotryptamine from human 5-HT7R expressed in HEK293 cells by radioligand binding assay; type: cell-based
[12] = system: Human immunodeficiency virus 1; assay: Antiviral activity against NNRTI resistant HIV1 harboring Leu100IIe mutant infected in human MT4 cells assessed as reduction in virus-induced cytopathic effect measured after 5 days by MTT assay; type: functional, organism-based; conditions: Human immunodeficiency virus 1, MT4, 120 h
[13] = system: Human immunodeficiency virus 1; assay: Antiviral activity against NNRTI resistant HIV1 harboring Tyr181Cys mutant infected in human MT4 cells assessed as reduction in virus-induced cytopathic effect measured after 5 days by MTT assay; type: functional, organism-based; conditions: Human immunodeficiency virus 1, MT4, 120 h
[14] = system: Human immunodeficiency virus 1; assay: Antiviral activity against NNRTI resistant HIV1 harboring Tyr188Leu mutant infected in human MT4 cells assessed as reduction in virus-induced cytopathic effect measured after 5 days by MTT assay; type: functional, organism-based; conditions: Human immunodeficiency virus 1, MT4, 120 h
[15] = system: Human immunodeficiency virus 1; assay: Antiviral activity against NNRTI resistant HIV1 LAI infected in human MT4 cells assessed as reduction in virus-induced cytopathic effect measured after 5 days by MTT assay; type: functional, organism-based; conditions: Human immunodeficiency virus 1, LAI, MT4, 120 h
[16] = system: Human immunodeficiency virus 1; assay: Antiviral activity against NNRTI resistant HIV1 harboring Lys103Asn mutant infected in human MT4 cells assessed as reduction in virus-induced cytopathic effect measured after 5 days by MTT assay; type: functional, organism-based; conditions: Human immunodeficiency virus 1, MT4, 120 h
SK-OV-3 = assay: Cytotoxicity against human SK-OV-3 cells assessed as cell growth inhibition; type: functional, cell-based
HL-60 = assay: Cytotoxicity against human HL-60 cells assessed as cell growth inhibition; type: functional, cell-based
NADPH oxidase 5 = NADPH oxidase 5 (Homo sapiens, UniProt Q96PH1); assay: Inhibition of human NOX5
NADPH oxidase 4 = NADPH oxidase 4 (Homo sapiens, UniProt Q9NPH5); assay: Inhibition of human NOX4
[17] = molecular target: T2, 5-hydroxytryptamine receptor 6; assay: Displacement of [3H]-LSD from human 5-HT6R expressed in HEK293 cells by radioligand binding assay; type: cell-based
SK-BR-3 = assay: Antiproliferative activity against human SK-BR-3 cells assessed as cell growth inhibition measured after 72 hrs by MTT assay; type: functional, cell-based; conditions: SK-BR-3, 72 h
MDA-MB-231 = assay: Antiproliferative activity against human MDA-MB-231 cells assessed as cell growth inhibition measured after 72 hrs by MTT assay; type: functional, cell-based; conditions: MDA-MB-231, 72 h
MCF-10A = assay: Antiproliferative activity against human MCF-10A cells assessed as cell growth inhibition measured after 72 hrs by MTT assay; type: functional, cell-based
MCF7 [18] = assay: Antiproliferative activity against human MCF7 cells assessed as cell growth inhibition measured after 72 hrs by MTT assay; type: functional, cell-based; conditions: MCF7, 72 h

NADPH oxidase 2, sequence (P04839 whole entry): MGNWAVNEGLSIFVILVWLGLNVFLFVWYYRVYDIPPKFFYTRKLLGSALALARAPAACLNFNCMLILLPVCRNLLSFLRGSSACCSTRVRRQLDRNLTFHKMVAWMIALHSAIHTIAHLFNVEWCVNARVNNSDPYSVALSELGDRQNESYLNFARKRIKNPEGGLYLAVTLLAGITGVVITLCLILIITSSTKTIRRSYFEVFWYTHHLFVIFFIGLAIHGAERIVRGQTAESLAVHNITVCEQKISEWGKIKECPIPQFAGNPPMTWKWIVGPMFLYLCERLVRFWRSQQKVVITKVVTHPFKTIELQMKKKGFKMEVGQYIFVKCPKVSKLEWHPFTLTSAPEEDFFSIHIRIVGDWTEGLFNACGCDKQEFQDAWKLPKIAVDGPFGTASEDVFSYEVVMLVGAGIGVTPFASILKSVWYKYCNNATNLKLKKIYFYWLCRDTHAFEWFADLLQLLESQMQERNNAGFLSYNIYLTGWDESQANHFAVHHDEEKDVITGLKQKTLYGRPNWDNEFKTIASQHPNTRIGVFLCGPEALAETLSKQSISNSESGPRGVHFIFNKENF
NADPH oxidase 1, sequence (Q9Y5S8 whole entry): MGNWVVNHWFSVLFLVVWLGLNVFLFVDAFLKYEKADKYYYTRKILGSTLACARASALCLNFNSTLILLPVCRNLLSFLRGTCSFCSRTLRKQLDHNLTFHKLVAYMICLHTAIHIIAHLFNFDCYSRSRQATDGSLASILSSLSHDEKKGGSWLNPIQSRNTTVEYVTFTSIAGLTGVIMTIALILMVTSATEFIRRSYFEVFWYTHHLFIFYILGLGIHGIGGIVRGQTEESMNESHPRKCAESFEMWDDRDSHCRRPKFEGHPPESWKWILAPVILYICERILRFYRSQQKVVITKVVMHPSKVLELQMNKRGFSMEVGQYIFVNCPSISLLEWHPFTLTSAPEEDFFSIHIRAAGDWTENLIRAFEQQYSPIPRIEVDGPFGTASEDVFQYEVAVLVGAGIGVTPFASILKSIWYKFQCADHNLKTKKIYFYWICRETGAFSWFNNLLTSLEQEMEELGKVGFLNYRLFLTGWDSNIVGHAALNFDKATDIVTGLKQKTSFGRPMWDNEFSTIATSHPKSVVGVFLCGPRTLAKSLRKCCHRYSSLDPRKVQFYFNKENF
T1 sequence (O14842 whole entry): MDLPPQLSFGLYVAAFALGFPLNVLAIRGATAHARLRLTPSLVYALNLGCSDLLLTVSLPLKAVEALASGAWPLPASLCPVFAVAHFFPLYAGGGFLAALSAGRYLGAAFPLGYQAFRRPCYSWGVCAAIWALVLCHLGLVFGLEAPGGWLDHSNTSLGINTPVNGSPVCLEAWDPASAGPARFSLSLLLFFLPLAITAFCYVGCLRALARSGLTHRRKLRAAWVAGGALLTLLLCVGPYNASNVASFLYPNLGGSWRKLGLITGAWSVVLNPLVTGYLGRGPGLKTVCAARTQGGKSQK
T2 sequence (P50406 whole entry): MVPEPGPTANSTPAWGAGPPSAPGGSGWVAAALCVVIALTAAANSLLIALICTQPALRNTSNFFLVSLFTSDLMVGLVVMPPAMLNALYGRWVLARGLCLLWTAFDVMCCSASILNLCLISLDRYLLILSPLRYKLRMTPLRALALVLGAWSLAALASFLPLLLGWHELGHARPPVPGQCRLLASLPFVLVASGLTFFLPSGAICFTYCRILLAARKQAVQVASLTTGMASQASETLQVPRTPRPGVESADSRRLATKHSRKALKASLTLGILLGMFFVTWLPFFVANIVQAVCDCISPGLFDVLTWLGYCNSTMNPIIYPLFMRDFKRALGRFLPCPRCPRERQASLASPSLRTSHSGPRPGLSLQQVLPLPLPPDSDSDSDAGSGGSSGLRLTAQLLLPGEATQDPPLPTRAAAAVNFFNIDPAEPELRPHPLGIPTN
NADPH oxidase 3, sequence (Q9HBY0 whole entry): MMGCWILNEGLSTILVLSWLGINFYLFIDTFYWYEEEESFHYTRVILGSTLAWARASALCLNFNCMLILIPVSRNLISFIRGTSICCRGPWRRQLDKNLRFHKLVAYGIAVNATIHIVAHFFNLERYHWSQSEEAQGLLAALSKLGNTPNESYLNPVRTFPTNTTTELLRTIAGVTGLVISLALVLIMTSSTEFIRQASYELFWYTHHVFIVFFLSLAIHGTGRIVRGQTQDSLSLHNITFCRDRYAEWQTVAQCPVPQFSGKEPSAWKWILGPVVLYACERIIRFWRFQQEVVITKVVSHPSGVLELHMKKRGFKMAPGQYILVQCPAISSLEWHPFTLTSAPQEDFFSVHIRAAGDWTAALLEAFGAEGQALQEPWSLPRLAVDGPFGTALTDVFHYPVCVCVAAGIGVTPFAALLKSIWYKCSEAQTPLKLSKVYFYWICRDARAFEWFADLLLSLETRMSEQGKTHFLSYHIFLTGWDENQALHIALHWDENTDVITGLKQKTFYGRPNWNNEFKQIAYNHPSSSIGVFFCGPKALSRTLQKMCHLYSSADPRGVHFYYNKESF
NADPH oxidase 4, sequence (Q9NPH5 whole entry): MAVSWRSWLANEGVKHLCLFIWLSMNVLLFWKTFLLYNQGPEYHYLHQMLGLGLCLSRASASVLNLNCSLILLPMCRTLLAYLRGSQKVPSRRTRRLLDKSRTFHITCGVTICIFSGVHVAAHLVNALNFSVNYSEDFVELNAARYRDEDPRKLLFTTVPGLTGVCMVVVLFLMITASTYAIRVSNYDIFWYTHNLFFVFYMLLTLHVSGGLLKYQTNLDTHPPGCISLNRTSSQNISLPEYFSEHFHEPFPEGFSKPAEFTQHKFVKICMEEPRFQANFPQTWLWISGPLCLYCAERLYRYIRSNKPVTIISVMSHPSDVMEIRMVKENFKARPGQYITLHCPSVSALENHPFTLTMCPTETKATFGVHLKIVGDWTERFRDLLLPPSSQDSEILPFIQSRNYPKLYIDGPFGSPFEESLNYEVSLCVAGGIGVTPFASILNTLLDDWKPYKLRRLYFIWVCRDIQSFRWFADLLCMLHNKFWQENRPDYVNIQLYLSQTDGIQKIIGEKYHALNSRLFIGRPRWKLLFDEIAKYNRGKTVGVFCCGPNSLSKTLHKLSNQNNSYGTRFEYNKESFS
5-hydroxytryptamine receptor 1A, sequence (P08908 whole entry): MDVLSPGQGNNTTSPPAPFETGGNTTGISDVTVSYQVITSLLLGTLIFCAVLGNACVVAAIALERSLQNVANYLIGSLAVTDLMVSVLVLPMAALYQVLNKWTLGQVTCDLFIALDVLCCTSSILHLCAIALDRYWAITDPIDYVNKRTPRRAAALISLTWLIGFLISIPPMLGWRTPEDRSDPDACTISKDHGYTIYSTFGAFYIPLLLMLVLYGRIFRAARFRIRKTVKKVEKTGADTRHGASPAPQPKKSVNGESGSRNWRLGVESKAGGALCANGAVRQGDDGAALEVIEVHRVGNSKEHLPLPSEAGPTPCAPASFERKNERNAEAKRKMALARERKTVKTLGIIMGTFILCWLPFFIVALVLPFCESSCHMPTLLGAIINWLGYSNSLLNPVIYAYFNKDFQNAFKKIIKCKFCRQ
D(2) dopamine receptor, sequence (P14416 whole entry): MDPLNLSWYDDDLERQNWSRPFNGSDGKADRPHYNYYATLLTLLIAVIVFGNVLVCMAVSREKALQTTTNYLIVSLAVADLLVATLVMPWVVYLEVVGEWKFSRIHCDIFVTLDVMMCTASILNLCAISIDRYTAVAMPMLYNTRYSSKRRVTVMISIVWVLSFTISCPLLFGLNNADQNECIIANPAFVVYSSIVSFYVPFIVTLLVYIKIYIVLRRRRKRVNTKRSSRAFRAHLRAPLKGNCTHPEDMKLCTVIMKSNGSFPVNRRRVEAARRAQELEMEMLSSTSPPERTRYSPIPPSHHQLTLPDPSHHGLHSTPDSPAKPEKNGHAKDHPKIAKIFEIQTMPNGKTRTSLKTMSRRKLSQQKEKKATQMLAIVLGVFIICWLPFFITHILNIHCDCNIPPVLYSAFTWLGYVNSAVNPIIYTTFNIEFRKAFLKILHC
5-hydroxytryptamine receptor 7, sequence (P34969 whole entry): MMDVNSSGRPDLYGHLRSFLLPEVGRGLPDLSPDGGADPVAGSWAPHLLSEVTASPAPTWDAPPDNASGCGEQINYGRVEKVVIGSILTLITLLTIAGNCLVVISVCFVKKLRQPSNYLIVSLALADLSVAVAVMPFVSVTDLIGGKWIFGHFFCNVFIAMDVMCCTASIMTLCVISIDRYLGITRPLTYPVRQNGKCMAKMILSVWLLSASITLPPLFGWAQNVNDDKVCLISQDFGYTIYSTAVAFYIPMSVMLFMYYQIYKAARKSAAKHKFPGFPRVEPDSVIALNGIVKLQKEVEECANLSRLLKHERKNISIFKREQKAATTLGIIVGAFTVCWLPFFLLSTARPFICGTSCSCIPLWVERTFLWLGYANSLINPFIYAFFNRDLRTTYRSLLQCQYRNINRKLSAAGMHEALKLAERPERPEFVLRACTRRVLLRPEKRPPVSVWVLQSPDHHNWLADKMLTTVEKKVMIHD

IC50 (K562): 0.05 µM
SMILES: Cc1ccc(Cl)cc1-c1nc(N)nc(Nc2ccc(Br)cc2)n1
IC50 (Jurkat): 0.05 µM | IC50 [5]: 0.05 µM | IC50 (DU-145): 0.07 µM | IC50 (Daudi): 0.07 µM | IC50 [6]: 0.075 µM | IC50 (MCF7 [7]): 0.09 µM | IC50 [8]: 0.104 µM | IC50 (HEC-1-A): 0.1 µM | IC50 (AN3-CA): 0.037 µM

IC50 (NADPH oxidase 3): 3.2 µM | IC50 (NADPH oxidase 5): 0.57 µM | IC50 (NADPH oxidase 1): 7 µM | IC50 (NADPH oxidase 4): 0.68 µM | IC50 (NADPH oxidase 2): 16 µM
SMILES: Cc1ccc(N2CCN(c3nc(N)nc(Nc4ccc(C)c(C)c4)n3)CC2)cc1

Ki [17]: 0.028 µM
SMILES: CC(Oc1ccccc1Cl)c1nc(N)nc(N2CCN(C)CC2)n1 (stereo not drawn)

IC50 (SK-BR-3): 0.21 µM | IC50 (MDA-MB-231): 0.001 µM | IC50 (MCF7 [18]): > 20 µM
SMILES: COc1cc(-c2nc(N)nc(Nc3ccc(C)cc3)n2)cc(OC)c1OC
IC50 (MCF-10A): > 20 µM

The next lines start with the compound.

SMILES: Cc1ccccc1Nc1nc(N)nc(COc2ccc3c(C)cc(=O)oc3c2)n1
Emax [1]: 134% | EC50 [2]: 0.776 µM

SMILES: C[C@H](CCc1nc(N)nc(N(C)C)n1)[C@H]1CC[C@H]2[C@@H]3[C@@H](O)C[C@@H]4C[C@H](O)CC[C@]4(C)[C@H]3CC[C@]12C
IC50 [3]: 30.3 µM | IC50 [4]: 28.6 µM

SMILES: COc1cccc(N2CCN(Cc3nc(N)nc(Nc4ccc(C)c(C)c4)n3)CC2)c1
IC50 (NADPH oxidase 3): 1.25 µM | IC50 (NADPH oxidase 1): > 10 µM | IC50 (NADPH oxidase 2): 1.25 µM

SMILES: CCN(CC)c1ccc2cc(-c3nc(N)nc(N4CCN(c5ccccc5)CC4)n3)c(=N)oc2c1
IC50 (SISO): 2.6 µM | IC50 (DAN-G): 2.14 µM | IC50 (RT-4): 1.66 µM | IC50 (LCLC): 2.21 µM | IC50 (A-427): 1.51 µM

SMILES: CN1CCN(c2nc(N)nc(Cc3c[nH]c4ccccc34)n2)CC1
Ki [9]: 9.45 µM | Kb [10]: 0.018 µM | Ki (D(2) dopamine receptor): 1.95 µM | Ki [11]: 16.8 µM

SMILES: Cc1cc(C)c(Cc2nc(N)nc(Nc3ccc(C#N)cc3)n2)c(C)c1
IC50 [12]: 0.082 µM | IC50 [13]: 0.015 µM | IC50 [14]: 0.045 µM | IC50 [15]: 0.0008 µM | IC50 [16]: 0.003 µM

SMILES: CCOc1ccc(Cl)cc1-c1nc(N)nc(Nc2ccc(Cl)cc2)n1
IC50 (Jurkat): 0.03 µM | IC50 [5]: 0.02 µM | IC50 (K562): 0.03 µM | IC50 (DU-145): 0.03 µM | IC50 (Daudi): 0.01 µM | IC50 (SK-OV-3): 0.032 µM | IC50 (HL-60): 0.03 µM | IC50 [6]: 0.02 µM | IC50 (MCF7 [7]): 0.05 µM | IC50 [8]: 0.08 µM | IC50 (HEC-1-A): 0.054 µM | IC50 (AN3-CA): 0.033 µM
